# Results published in patent US20090247768A1, “CRYSTALLINE SULFONAMIDE-CONTAINING INDOLE COMPOUND AND PROCESS FOR PREPARING THE SAME” (priority 2003, published 2009).
# Test: Solid stability against light (impurity content by HPLC after storage)
# Type: physicochemical
# Details: for Impurity content (%): HPLC; for change in impurity content before and after storage: 25° C./1000 Lx, 1 month and 3 months
# Procedure: Column: ODS column (inner diameter=4.6 mm, column length=250 mm, particle size=5 μm) Column temperature: 30° C. Detection wavenumber: 282 nm Flow rate: 1.0 mL/min Mobile phase: Solution A: CH3CN/H2O/70% HClO4=100/900/1 (v/v/v) Solution B: CH3CN/H2O/70% HClO4=900/100/1 (v/v/v)
# All of the peaks and peak areas were calculated from the chromatogram, and the impurity amount for each peak (except for the peak of N-(3-cyano-4-methyl-1H-indol-7-yl)-3-cyanobenzenesulfonamide) was calculated according to the following formula.
# Individual impurity content (%)=(individual impurity peak area)/(total of all peak areas)×100
# Peaks with impurity contents of 0.05% or greater were recorded as impurity peaks, and their total was recorded as the impurity content of the crystals.
# Impurity content (%)=Total of individual impurity contents (%)
# The crystals obtained in Example 1C, Example 1E and Example 1F were stored for 1 month and 3 months at 25° C./1000 Lx (LT-120D3J Light Stability Tester by Nagano Science, Japan), and then the impurity contents were measured by HPLC.
# HPLC was conducted under the same conditions as in Test Example 1, except that elution was performed with the gradient program shown in Table 14.
# The impurity content of the crystals was determined by the same method as described for Test Example 1. […] That is, the crystals obtained in Examples 1F and 1C (Form A and Form C) clearly had higher stability against light.
# [1] = solid crystals stored at 25° C./1000 Lx/1 month
# [2] = solid crystals stored at 25° C./1000 Lx/3 months
SMILES,Impurity content (%) [1] [%],Impurity content (%) [2] [%],change in impurity content before and after storage (solid crystals),"Impurity content (%) (solid crystals, before storage)"
"Cc1ccc(NS(=O)(=O)c2cccc(C#N)c2)c2[nH]cc(C#N)c12 [Example 1E, N-(3-cyano-4-methyl-1H-indol-7-yl)-3-cyanobenzenesulfonamide]",0.83,4.44,increased,0.50
"Cc1ccc(NS(=O)(=O)c2cccc(C#N)c2)c2[nH]cc(C#N)c12 [Example 1C, N-(3-cyano-4-methyl-1H-indol-7-yl)-3-cyanobenzenesulfonamide]",0.51,0.51,no change,0.51
"Cc1ccc(NS(=O)(=O)c2cccc(C#N)c2)c2[nH]cc(C#N)c12 [Example 1F, N-(3-cyano-4-methyl-1H-indol-7-yl)-3-cyanobenzenesulfonamide]",0.41,0.51,no change,0.42
